Test results from PubChem BioAssay (NCI).
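Test compounds were applied to cells in 96-well plates for 48 hours at 5 doses. At the TGI there is no net growth.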

How the values were obtained:
Experiment in all cases: growth of human tumour cells (NCI), 48 h
[1] = test system: OVCAR-4 ovarian
[2] = test system: OVCAR-8 ovarian
[3] = test system: RXF 393 renal
[4] = test system: UACC-257 melanoma
[5] = test system: KM12 colon
[6] = test system: SK-OV-3 ovarian
[7] = test system: HCT-116 colon
[8] = test system: HL-60(TB) leukemia
[9] = test system: A549 NSCLC
[10] = test system: MALME-3M melanoma
[11] = test system: OVCAR-3 ovarian
[12] = test system: TK-10 renal
[13] = test system: HCC-2998 colon
[14] = test system: DLD-1 colon
[15] = test system: SF-268 CNS
[16] = test system: MCF7 breast
[17] = test system: PC-3 prostate
[18] = test system: T-47D breast
[19] = test system: NCI/ADR-RES ovarian
[20] = test system: MDA-MB-231 breast

Row | SMILES | TGI [1] | TGI [2] | TGI [3] | TGI [4] | TGI [5] | TGI [6] | TGI [7] | TGI [8] | TGI [9] | TGI [10] | TGI [11] | TGI [12] | TGI [13] | TGI [14] | TGI [15] | TGI [16] | TGI [17] | TGI [18] | TGI [19] | TGI [20]
1 | Cc1ccc(-c2cc(-c3ccccc3)c(C#N)c(=O)[nH]2)cc1 | > 100 µM | > 100 µM | > 100 µM | > 100 µM | > 100 µM | > 100 µM | > 100 µM | > 100 µM | > 100 µM | > 100 µM | > 100 µM | > 100 µM | > 100 µM | > 100 µM | > 100 µM |  |  |  |  | 
2 | CC(=O)[C@H]1[C@H](O)C[C@@]2(C)[C@@H]3CCc4cc(O)c(OC5OC(CO)C(O)C(O)C5O)cc4C3(C)C(=O)C[C@]12C (stereo not given in full) | > 100 µM | > 100 µM | > 100 µM | > 100 µM | > 100 µM | > 100 µM | > 100 µM | > 100 µM | > 100 µM | > 100 µM | > 100 µM | > 100 µM | > 100 µM |  | > 100 µM | > 100 µM | > 100 µM | > 100 µM | > 100 µM | > 100 µM
3 | COc1ccc(C2Cc3cc(OC)c(OC)c(OC)c3C2)cc1 (stereo not given) | > 100 µM | > 100 µM |  | > 100 µM | > 100 µM | > 100 µM | > 100 µM |  | 76.2 µM | > 100 µM | > 100 µM | > 100 µM | > 100 µM | > 100 µM | > 100 µM |  |  |  |  | 
4 | O=[N+]([O-])/C(Cl)=C(/C(Cl)=C(Cl)Cl)N1CCOCC1 | 16.7 µM | 11.9 µM | 7.93 µM | 9.3 µM | 13.1 µM | 27.3 µM | 7.51 µM | 5.23 µM | 15.6 µM | 3.07 µM | 4.86 µM | 13.6 µM | 7.52 µM |  | 24.4 µM | 8.25 µM | 19.3 µM | 9.36 µM | 14.9 µM | 8.89 µM
5 | CC1=NN(c2nc(N)nc(/C(C#N)=C\c3ccc(-c4ccc([N+](=O)[O-])cc4)o3)n2)C(C)(C)C1 | > 100 µM | > 100 µM | > 100 µM | > 100 µM | > 100 µM | > 100 µM | > 100 µM | 94.7 µM | > 100 µM | > 100 µM | > 100 µM | > 100 µM | > 100 µM |  | > 100 µM | > 100 µM | > 100 µM | > 100 µM | > 100 µM | > 100 µM
